Measurements taken from ChEMBL document CHEMBL1201862, “PubChem BioAssay data set” (2004).
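96-well plates; 48 h exposure; 5 concentrations. Endpoints by linear interpolation between flanking doses. Not reached: highest tested concentration assigned. GI50 is the concentration that inhibits growth by half.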 Activity calls are given as the source filed them. Cut-off read from the data, not from the text of the source: active = GI50 up to about 1.1 µM and inactive = higher.

How the values were obtained:
Experiment in all cases: inhibition of tumour cell growth, NCI panel, 48 h
SF-295 = system: SF-295
SF-268 = system: SF-268
EKVX = system: EKVX
U-251 = system: U-251
DMS-273 = system: DMS-273
Malme-3M = system: Malme-3M
UACC-257 = system: UACC-257
OVCAR-3 = system: OVCAR-3
SNB-19 = system: SNB-19
COLO 205 = system: COLO 205
HCC 2998 = system: HCC 2998
SK-OV-3 = system: SK-OV-3
A498 = system: A498
LOX IMVI = system: LOX IMVI
SR = system: SR
SF-539 = system: SF-539
HOP-62 = system: HOP-62
NCI-H460 = system: NCI-H460
NCI-H226 = system: NCI-H226
OVCAR-8 = system: OVCAR-8
TK-10 = system: TK-10
MOLT-4 = system: MOLT-4
HCT-15 = system: HCT-15
HL-60 = system: HL-60
HCT-116 = system: HCT-116
SK-MEL-5 = system: SK-MEL-5
ACHN = system: ACHN
A549 = system: A549
SN12C = system: SN12C
SNB-78 = system: SNB-78
NCI-H522 = system: NCI-H522
786-0 = system: 786-0
LXFL 529 = system: LXFL 529
K562 = system: K562
DLD-1 = system: DLD-1
M19-MEL = system: M19-MEL
SK-MEL-2 = system: SK-MEL-2
SK-MEL-28 = system: SK-MEL-28
OVCAR-5 = system: OVCAR-5
UACC-62 = system: UACC-62
SNB-75 = system: SNB-75
KM-20L2 = system: KM-20L2
CCRF-CEM = system: CCRF-CEM
KM12 = system: KM12
HOP-18 = system: HOP-18
HOP-92 = system: HOP-92
UO-31 = system: UO-31
RPMI-8226 = system: RPMI-8226
NCI-H23 = system: NCI-H23
RXF 393 = system: RXF 393
SW-620 = system: SW-620
IGROV-1 = system: IGROV-1
M14 = system: M14
HT-29 = system: HT-29
OVCAR-4 = system: OVCAR-4
XF498 = system: XF498
DMS-114 = system: DMS-114
CAKI-1 = system: CAKI-1

`COC(=O)C1C(OCc2ccccc2)C2CCC1(OC)C=C2C` (stereo not drawn) was tested, and the GI50 (SF-295) was > 79.6 µM (inactive), the GI50 (SF-268) was > 100 µM (inactive) and the GI50 (EKVX) was 46.9 µM (inactive). For the same compound, the GI50 (U-251) was > 55.2 µM (inactive), the GI50 (DMS-273) was > 55.3 µM (inactive) and the GI50 (Malme-3M) was > 100 µM (inactive). For the same compound, the GI50 (UACC-257) was 42.8 µM (inactive), the GI50 (OVCAR-3) was > 51.6 µM (inactive) and the GI50 (SNB-19) was > 81.8 µM (inactive). The GI50 (COLO 205) was > 100 µM (inactive), the GI50 (HCC 2998) was 62.5 µM (inactive) and the GI50 (SK-OV-3) was > 100 µM (inactive). The GI50 (A498) was > 100 µM (inactive), the GI50 (LOX IMVI) was > 68.7 µM (inactive) and the GI50 (SR) was 17.8 µM (inactive). For the same compound, the GI50 (SF-539) was 97.7 µM (inactive), the GI50 (HOP-62) was > 100 µM (inactive) and the GI50 (NCI-H460) was > 100 µM (inactive). For the same compound, the GI50 (NCI-H226) was 75.5 µM (inactive), the GI50 (OVCAR-8) was > 84.9 µM (inactive) and the GI50 (TK-10) was > 74.3 µM (inactive). The GI50 (MOLT-4) was 24.9 µM (inactive), the GI50 (HCT-15) was > 89.3 µM and the GI50 (HL-60) was 10.8 µM (inactive). The GI50 (HCT-116) was 61.4 µM (inactive), the GI50 (SK-MEL-5) was > 85.5 µM (inactive) and the GI50 (ACHN) was > 61.8 µM (inactive). The GI50 (A549) was > 100 µM (inactive), the GI50 (SN12C) was > 100 µM (inactive) and the GI50 (SNB-78) was > 100 µM (inactive). For the same compound, the GI50 (NCI-H522) was 29.4 µM (inactive), the GI50 (786-0) was > 100 µM (inactive) and the GI50 (LXFL 529) was 59 µM (inactive). For the same compound, the GI50 (K562) was 41.1 µM (inactive), the GI50 (DLD-1) was > 100 µM (inactive) and the GI50 (M19-MEL) was > 58.3 µM (inactive). For the same compound, the GI50 (SK-MEL-2) was > 50.8 µM (inactive), the GI50 (SK-MEL-28) was > 100 µM (inactive) and the GI50 (OVCAR-5) was > 100 µM (inactive). The GI50 (UACC-62) was 64.6 µM (inactive), the GI50 (SNB-75) was > 100 µM (inactive) and the GI50 (KM-20L2) was > 100 µM (inactive). The GI50 (CCRF-CEM) was 26.9 µM (inactive), the GI50 (KM12) was > 100 µM (inactive) and the GI50 (HOP-18) was > 100 µM (inactive). For the same compound, the GI50 (HOP-92) was > 100 µM (inactive), the GI50 (UO-31) was > 100 µM (inactive) and the GI50 (RPMI-8226) was 23.6 µM (inactive). The GI50 (NCI-H23) was > 88.5 µM (inactive), the GI50 (RXF 393) was 54.3 µM (inactive) and the GI50 (SW-620) was > 100 µM (inactive). The GI50 (IGROV-1) was > 100 µM (inactive), the GI50 (M14) was 60.8 µM (inactive) and the GI50 (HT-29) was > 100 µM (inactive). The GI50 (OVCAR-4) was > 100 µM (inactive), the GI50 (XF498) was > 45.1 µM (inactive) and the GI50 (DMS-114) was > 57.1 µM (inactive). The GI50 (CAKI-1) was > 77.6 µM (inactive).
